Data set [1] can be described thus: Cardiotoxicity in human iPSC-derived cardiomyocytes assessed as induction of proarrhythmic activity at 10 uM by Fluo-4 dye based fluorescence analysis. It counts as toxicity. Particulars: cardiac muscle cell.
Data set [2] concerns the target T1, Ceramide glucosyltransferase (Homo sapiens, UniProt Q16739).
T1 sequence (Q16739 whole entry): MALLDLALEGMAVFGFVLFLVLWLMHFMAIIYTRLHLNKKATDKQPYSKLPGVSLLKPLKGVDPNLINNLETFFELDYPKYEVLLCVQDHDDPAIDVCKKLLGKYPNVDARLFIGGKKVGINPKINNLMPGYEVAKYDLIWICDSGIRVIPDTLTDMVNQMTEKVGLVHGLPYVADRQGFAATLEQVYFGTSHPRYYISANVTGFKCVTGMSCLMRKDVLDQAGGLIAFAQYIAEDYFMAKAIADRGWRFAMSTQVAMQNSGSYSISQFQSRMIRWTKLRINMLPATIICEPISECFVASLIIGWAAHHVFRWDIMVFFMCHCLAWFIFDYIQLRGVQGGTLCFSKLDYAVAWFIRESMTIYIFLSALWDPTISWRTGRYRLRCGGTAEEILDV
Nature of the data set: Inhibition of human GCS using C8-ceramide and UDP-glucose as substrate incubated for 1 hr by RapidFire mass spectrometry.

Data set [3] can be described thus: Intrinsic clearance in mouse liver microsomes at 1 uM in presence of NADPH generating system assessed per mg protein by LC-MS/MS analysis. The settings on record: read-out: CLH. It counts as ADME, Microsome.
The nature of data set [4]: AUC in non-fasted ICR mouse at 5 mg/kg, po by LC-MS/MS analysis. In kind it is ADME, organism-based. Further details: dose 5 mg/kg. The settings on record: in vivo.
Data set [5] is described as follows: Fraction unbound in brain of non-fasted ICR mouse at 30 mg/kg, po measured after 1 hr by LC-MS/MS analysis. It counts as ADME, organism-based.
In the next data set the target is CYP2D6 (Homo sapiens, UniProt P10635). Nature of the data set: Inhibition of CYP2D6 in human liver microsomes using dextromethorphan as substrate at 10 uM in presence of NADPH generating system incubated for 10 mins. It counts as ADME. The settings on record: probe dextromethorphan. Background: Liver microsomes are a subcellular fraction often used to study metabolism.
CYP2D6, sequence (P10635 whole entry): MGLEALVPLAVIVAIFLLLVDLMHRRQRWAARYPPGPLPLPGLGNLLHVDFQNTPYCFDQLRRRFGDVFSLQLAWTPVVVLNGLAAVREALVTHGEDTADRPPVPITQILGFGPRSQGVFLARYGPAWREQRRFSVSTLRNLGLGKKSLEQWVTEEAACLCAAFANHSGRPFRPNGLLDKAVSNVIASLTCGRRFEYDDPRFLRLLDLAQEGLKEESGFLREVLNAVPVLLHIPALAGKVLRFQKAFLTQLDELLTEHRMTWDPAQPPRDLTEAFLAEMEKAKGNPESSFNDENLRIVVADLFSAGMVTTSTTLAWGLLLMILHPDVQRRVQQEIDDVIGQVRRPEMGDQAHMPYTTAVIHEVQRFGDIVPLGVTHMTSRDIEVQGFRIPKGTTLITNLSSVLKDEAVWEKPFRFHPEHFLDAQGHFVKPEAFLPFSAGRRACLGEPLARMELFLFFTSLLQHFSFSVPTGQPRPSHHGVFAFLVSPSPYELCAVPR

In a further data set the target is T2, CYP1A2 (Homo sapiens, UniProt P05177).
T2 sequence (P05177 whole entry): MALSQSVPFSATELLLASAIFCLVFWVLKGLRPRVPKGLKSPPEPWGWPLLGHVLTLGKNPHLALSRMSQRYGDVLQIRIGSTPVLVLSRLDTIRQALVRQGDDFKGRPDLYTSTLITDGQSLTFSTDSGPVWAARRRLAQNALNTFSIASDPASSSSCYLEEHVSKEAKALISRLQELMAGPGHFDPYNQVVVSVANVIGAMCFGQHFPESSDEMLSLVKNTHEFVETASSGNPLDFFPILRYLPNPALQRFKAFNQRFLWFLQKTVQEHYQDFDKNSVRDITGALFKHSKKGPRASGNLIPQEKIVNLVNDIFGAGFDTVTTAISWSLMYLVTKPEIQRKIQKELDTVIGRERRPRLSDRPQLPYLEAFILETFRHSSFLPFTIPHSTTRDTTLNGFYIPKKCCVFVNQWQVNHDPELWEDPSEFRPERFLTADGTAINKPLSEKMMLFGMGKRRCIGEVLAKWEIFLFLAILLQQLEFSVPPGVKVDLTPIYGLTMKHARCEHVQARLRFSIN
Nature of the data set: Inhibition of CYP1A2 in human liver microsomes using tacrine as substrate at 10 uM in presence of NADPH generating system incubated for 10 mins. It counts as ADME. Particulars: probe tacrine.

Data set [6] deals with T3, Lysosomal acid glucosylceramidase (Homo sapiens, UniProt P04062).
T3 sequence (P04062 whole entry): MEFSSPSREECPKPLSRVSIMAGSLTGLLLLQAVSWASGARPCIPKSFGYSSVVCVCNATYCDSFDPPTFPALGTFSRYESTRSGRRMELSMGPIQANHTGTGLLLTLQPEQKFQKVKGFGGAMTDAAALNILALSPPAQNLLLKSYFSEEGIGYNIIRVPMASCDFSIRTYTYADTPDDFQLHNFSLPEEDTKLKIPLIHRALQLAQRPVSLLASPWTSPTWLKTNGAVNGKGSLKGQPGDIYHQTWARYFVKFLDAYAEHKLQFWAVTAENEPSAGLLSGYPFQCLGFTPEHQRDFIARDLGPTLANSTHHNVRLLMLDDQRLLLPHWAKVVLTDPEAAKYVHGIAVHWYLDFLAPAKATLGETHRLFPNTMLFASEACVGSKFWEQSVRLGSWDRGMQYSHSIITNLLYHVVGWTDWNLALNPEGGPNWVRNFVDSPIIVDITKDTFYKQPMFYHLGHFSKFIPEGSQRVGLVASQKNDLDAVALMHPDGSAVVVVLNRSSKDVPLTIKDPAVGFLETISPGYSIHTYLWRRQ
Nature of the data set: Inhibition of human recombinant GCase using 4-methylumbelliferyl beta-D-glucopyranoside as substrate incubated for 20 mins by fluorescence-based analysis.

A short description of data set [7]: Ratio of unbound drug concentration in brain to plasma of non-fasted ICR mouse at 30 mg/kg, po measured after 1 hr by LC-MS/MS analysis. In kind it is ADME, organism-based. The settings on record: read-out: K(p,uu,brain).
Data set [8] in a line: Intrinsic clearance in human liver microsomes at 1 uM in presence of NADPH generating system assessed per mg protein by LC-MS/MS analysis. In kind it is ADME, Microsome. Particulars: read-out: CLH.
Data set [9] is described as follows: Unbound drug concentration in brain of non-fasted ICR mouse at 30 mg/kg, po measured after 1 hr by LC-MS/MS analysis. Particulars: in vivo. In kind it is ADME, organism-based.
A further data set concerns the target CYP3A4 (Homo sapiens, UniProt P08684). Nature of the data set: Inhibition of CYP3A4 in human liver microsomes using midazolam as substrate at 10 uM in presence of NADPH generating system incubated for 10 mins. In kind it is ADME. The settings on record: probe midazolam.
The test system of the next data set is Mus musculus. The data set is described as follows: In vivo inhibition of GCS activity in po dosed C57BL/6J mouse assessed as reduction in GlcCer level in cerebral cortex measured after 6 hrs. In kind it is functional, organism-based. Particulars: dose 30-300 mg/kg.
The nature of data set [10]: Kinetic solubility of the compound in JP2 fluid at pH 6.8 by precipitation method. It counts as physicochemical. Particulars: read-out: Kinetic_solubility.
The nature of data set [11]: Toxicity in Sprague-Dawley rat assessed as change in body weight at 30 to 300 mg/kg, po administered once daily for 3 days. In kind it is organism-based. Particulars: in vivo, 72 h, dose 30-300 mg/kg, time 3 day.
A short description of data set [12]: Oral bioavailability in non-fasted ICR mouse at 5 mg/kg by LC-MS/MS analysis. In kind it is ADME, organism-based. The settings on record: in vivo.

Experimental findings from ChEMBL document CHEMBL5046282, “Discovery of Brain-Penetrant Glucosylceramide Synthase Inhibitors with a Novel Pharmacophore” (J Med Chem, 2022) are described below.

Converted amounts (≈) assume the structure as drawn. Some results are limits rather than exact numbers.

CYP3A4, sequence (P08684 whole entry): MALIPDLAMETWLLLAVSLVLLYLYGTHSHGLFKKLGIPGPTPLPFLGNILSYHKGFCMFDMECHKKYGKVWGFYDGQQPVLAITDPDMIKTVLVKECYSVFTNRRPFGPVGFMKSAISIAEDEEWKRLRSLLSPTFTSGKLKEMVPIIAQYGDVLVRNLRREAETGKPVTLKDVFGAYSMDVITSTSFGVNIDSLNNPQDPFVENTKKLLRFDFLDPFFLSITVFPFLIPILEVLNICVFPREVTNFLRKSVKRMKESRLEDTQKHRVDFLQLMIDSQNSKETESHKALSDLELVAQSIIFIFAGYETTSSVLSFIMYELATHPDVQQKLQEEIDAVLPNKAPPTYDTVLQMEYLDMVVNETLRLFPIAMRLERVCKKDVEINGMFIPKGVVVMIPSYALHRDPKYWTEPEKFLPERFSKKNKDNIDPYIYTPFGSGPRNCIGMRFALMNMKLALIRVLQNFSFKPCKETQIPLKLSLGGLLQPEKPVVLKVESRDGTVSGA

In the case of `CC(C)(O)c1ccc(NC(=O)c2ccnn(-c3ccccc3OCC(F)(F)F)c2=O)cc1`, the Activity entry in [1] and in data set [11] was “Non-Toxic” each time. The same compound showed a 50% inhibitory concentration (IC50) in data set [2] of 15 nM. Besides, the microsomal CLint at 1 µM in data set [3] was found to be 1 µL/min/mg; in [8], 32 µL/min/mg. This compound yielded an AUC in [4] of 829 ng·h/mL. This compound also returned a fraction unbound at 1 h in [5] of 0.039. Also, the inhibition at 10 min, 10 µM is 15.6% at CYP2D6, 9.3% on CYP1A2 and -4.8% on CYP3A4. Further, the EC50 in [6] is over 300000 nM. Further, the Kp uu at 1 h in data set [7] amounted to 0.26. Further, the “Drug uptake(free)” value in data set [9] stood at 0.21 µM. Also, the inhibition entry with Mus musculus is “Dose-Dependent Effect”. The solubility kinetic in data set [10] worked out at 45 µg/mL (≈ 101 µM). In data set [12], this compound yielded a bioavailability of 31%.

For orientation: IC50 means the midpoint of a concentration-inhibition curve. The AUC is the area under the concentration-time curve, a measure of exposure. High values mean more exposure, low ones less exposure. As usually defined, the fraction unbound is the share of the substance not bound to proteins or other matrix. A low value points to little free substance. As a reminder, the inhibition is the relative decrease from the control value, in per cent. In general, EC50 refers to the concentration that produces a half-maximal response. The bioavailability is dose-corrected exposure relative to a reference, in per cent. Lower therefore signals little systemic uptake.
